Measured values from patent publication US20120225889A1, “USE OF MACROCYCLIC LACTONE DERIVATIVES FOR THE TREATMENT OF INFLAMMATORY DISORDERS” (PIRAMAL LIFE SCIENCES LIMITED, priority 2010, published 2012).

Target: T1, p38 MAPK (Homo sapiens, UniProt Q16539)
T1 construct: endogenous in cells; host or cells: Jurkat T-cells (ATCC TIB-152, clone E6-1)
Assay: p38 MAPK assay in anisomycin stimulated Jurkat T-cells (Western blot)
Assay type: cell-based
Details: 3 μM, phospho-p38 Western blot
Protocol: The method for identifying inhibitors of p38 MAPK was designed as in reference, Journal of Lipid Research, 40, 1911-1919, (1999), the disclosure of which is incorporated by reference for the teaching of the assay.
Human Jurkat T-cells (ATCC number: TIB-152, clone E6-1, USA) were cultured in culture medium (RPMI 1640 culture medium supplemented with 10% FBS, 100 U/mL penicillin and 100 μg/mL streptomycin) at 37° C., 5% CO2. Culture medium was changed every 2-3 days and always a day prior to the experiment. On the day of the experiment, Jurkat cells were pre-treated with vehicle or test compound at 3 μM, 10 times the IC50 value for IL-6 inhibition in human monocyte assay, for 1 h at 37° C. Subsequently, the cells were stimulated with anisomycin (10 μg/mL; Sigma, USA) for 30 min SB 203580 (1 PM; Sigma, USA) was used as a standard. The sample preparation of the test compound, anisomycin and SB 203580 is as follows: a stock solution (20 mM) of the test compound was prepared in DMSO. […]
Following the stimulation, cells were harvested, rapidly washed with ice-cold PBS and lysed with cold Cell Lytic buffer (Sigma, USA) supplemented with complete protease inhibitor cocktail (Roche, USA) and sodium orthovanadate (Sigma, USA). […] Aliquots of the resulting extracts were analyzed for their protein content using the Coomassie Plus Protein Assay Reagent (Pierce, USA) as per manufacturer's instructions. […]

T1 sequence (Q16539 whole entry): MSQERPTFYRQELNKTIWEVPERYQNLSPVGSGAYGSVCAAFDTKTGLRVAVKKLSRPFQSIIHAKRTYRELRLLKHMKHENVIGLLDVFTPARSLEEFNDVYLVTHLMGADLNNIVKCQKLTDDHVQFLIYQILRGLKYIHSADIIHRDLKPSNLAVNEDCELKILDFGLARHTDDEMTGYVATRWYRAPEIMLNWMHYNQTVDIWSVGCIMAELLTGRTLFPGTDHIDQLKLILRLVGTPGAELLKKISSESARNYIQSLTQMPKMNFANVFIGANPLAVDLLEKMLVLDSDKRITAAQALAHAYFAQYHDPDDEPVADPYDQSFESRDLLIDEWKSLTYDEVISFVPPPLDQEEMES

C/C=C/C(O)C(C)/C=C/C(=N\O)C(C)C(O)C(C)C1OC(=O)/C(OC)=C/C(C)=C/C(C)C(O)C(CC)C(O)C(C)C/C(C)=C/C=C/C1OC (stereo not shown) [Compound of example 7, (3Z,5E,13E,15E)-18-((5Z,6E,10E)-3,9-Dihydroxy-5-(hydroxymino)-4,8-dimethyldodeca-6,10-dien-2-yl)-9-ethyl-8,10-dihydroxy-3,17-dimethoxy-5,7,11,13-tetramethyl oxacyclooctadeca-3,5,13,15-tetraen-2-one]
inhibition of p38 MAP kinase: did not inhibit
